{
  "source": "patent US20200305435A1",
  "about": "“SYNERGISTIC COMBINATION OF BIOCIDES” (LONZA LLC, priority 2016, published 2020)",
  "experiment_in_all_cases": "Minimum inhibitory concentration, microtitre plate doubling dilutions",
  "format_in_all_cases": "cell-based",
  "key": {"Ps.a": {"system": "Ps.a", "details": "Pseudomonas aeruginosa; biocide alone; read-out: MIC versus organism Ps.a", "procedure": "(§1) Bacteria were grown to stationary phase (18 h) in nutrient broth (approximately 10^9 organisms per ml). A 0.1% (v/v) inoculum was used to seed fresh medium and 100 μl of this was added to each well of a microtitre plate, except for the first well which contained 200 μl. Using doubling dilutions, the concentration of each antimicrobial was varied in each well along the ordinate axis. The presence or absence of growth was determined by visual inspection after 24 hours incubation at 37° C."}, "Escherichia coli": {"system": "Escherichia coli", "details": "biocide alone, visual growth after 24 hours at 37° C., read-out: MIC versus organism E.c", "procedure": "as §1"}, "Staphylococcus aureus": {"system": "Staphylococcus aureus", "details": "biocide alone, visual growth after 24 hours at 37° C., read-out: MIC versus organism S.a", "procedure": "as §1"}, "C. albicans": {"system": "C. albicans", "details": "Candida albicans; biocide alone; read-out: MIC versus organism C.a", "procedure": "(§2) Fungi were grown on malt agar for 7 days at 25° C. to form a mycelial mat and the spore suspension harvested using 10 ml physiological saline (0.85% (w/v) NaCl). This was used as an inoculum as above. The presence or absence of growth was determined by visual inspection after 48 hours incubation at 25° C."}, "Aspergillus brasiliensis": {"system": "Aspergillus brasiliensis", "details": "biocide alone, visual growth after 48 hours at 25° C., read-out: MIC versus organism A.b", "procedure": "as §2"}},
  "data": [
    {"smiles": "N=C(NCCCCCCNC(=N)NC(=N)Nc1ccc(Cl)cc1)NC(=N)Nc1ccc(Cl)cc1", "note": "[Spectradyne, Chlorhexidine gluconate]", "values": [
      {"measurement": "MIC", "setting": "Ps.a", "value": 4, "unit": "µg/mL"},
      {"measurement": "MIC", "setting": "Escherichia coli", "value": 2, "unit": "µg/mL"},
      {"measurement": "MIC", "setting": "Staphylococcus aureus", "value": 1, "unit": "µg/mL"},
      {"measurement": "MIC", "setting": "C. albicans", "value": 16, "unit": "µg/mL"},
      {"measurement": "MIC", "setting": "Aspergillus brasiliensis", "value": 62.5, "unit": "µg/mL"}
    ]}
  ]
}
